Data from US20210388029A1, “CYTOPLASMIC TRANSDUCTION PEPTIDE AND INTRACELLULAR MESSENGER COMPRISING SAME” (priority 2016, published 2021).
No end group written: not given here.

Tested on: HeLa cells
Test: Cell membrane penetration activity in HeLa cells, immunostaining / confocal laser scanning microscope
Assay type: cell-based
Conditions: 3 hours; for fluorescence signal versus concentration (zinc finger domain peptides): FITC-conjugated
Procedure: HeLa cells were seeded into a 12-well plate having glass at a density of 1×10^5 cells/well, and then cultured for 24 hours to attach the cells to the glass. Then, cells were treated with FITC-NC peptides at […] concentration for 3 hours. After 3 hours, the cells were washed three times with PBS, the cells were fixed with 3.7% formaldehyde for 20 minutes, and the cells were treated with PBS containing 0.2% Triton X-100 to increase the cell membrane penetration activity. Then, the cells were blocked with 3% BSA for 1 hour, reacted with lamin A/C antibody (Sigma-Aldrich, USA) at room temperature for 2 hours, and washed three times with PBS. Next, the cells were treated with Cy3-conjugated secondary antibody (Jackson ImmunoResearch, USA) at room temperature for 1 hour, washed twice with PBS, and then stained with DAPI (4′,6-diamidino-2-phenylindol) for 10 minutes. The HeLa cell-attached glass was removed and placed on a slide glass.
The HeLa cells were seeded into a 12-well plate containing glass at a density of 1×10^5 cells/well, and then cultured for 24 hours to attach the cells to the glass. Thereafter, the FITC-NC peptide, the trans-activating transcriptional activator peptide (FITC-Tat peptide), the FITC-MA11 peptide, the protein transduction domain-ys peptide (FITC-PTD-ys peptide), the translocation motif peptide (FITC-TLM peptide) and FITC-TD1 peptide were treated with the HeLa cells for 3 hours. After 3 hours, the cells were washed 3 times with PBS and the cells were fixed with 3.7% formaldehyde for 20 minutes. The cells were treated with PBS containing 0.2% Triton X-100 to increase cell membrane penetration activity and blocked with 3% BSA for 1 hour. Then, the cells were reacted with tubulin antibody (Santa Cruz Biotechnology, USA) at room temperature for 2 hours and washed three times with PBS. The cells were treated with Cy3 secondary antibody. They were reacted at room temperature for 1 hour, washed twice with PBS, and stained with DAPI for 10 minutes. The HeLa cell-attached glass was removed and placed on a slide glass.
Further, in order to identify a change in cell membrane penetration activity by FITC-NC peptide, the HeLa cells were treated with hexapeptide, FITC-hexapeptide, FITC-NC-hexapeptide, FITC-13NC35 peptide and FITC-29NC50 peptide for 3 hours in the same manner as above and observed with a confocal laser scanning microscope. Meanwhile, the amino acid sequences of the hexapeptide, PTD-ys peptide, TLM peptide, TD1 peptide, NC-hexapeptide, 13NC35 peptide and 29NC50 peptide used are shown in Table 5 below.

| Substance | fluorescence signal versus concentration (zinc finger domain peptides) | also measured |
| --- | --- | --- |
| FITC-TLM peptide: translocation motif peptide, SEQ ID NO: 7 PLSSIFSRIGDP, FITC-conjugated [reference compound] |  | cell membrane penetration (confocal) (20 μM): hardly penetrable to the cell membrane |
| 29NC50 peptide: 29th to 50th amino acid of HIV-NC with second zinc finger domain, SEQ ID NO: 11 RAPRKKGCWKCGKEGHQMKDCT (cysteine pairing not given here; also: FITC label, place not given here) | fluorescence signals were increased in proportion to the concentration |  |
| 13NC35 peptide: 13th to 35th amino acid of HIV-NC with first zinc finger domain, SEQ ID NO: 10 VKCFNCGKEGHTARNCRAPRKKG (cysteine pairing not given here; also: FITC label, place not given here) | fluorescence signals were increased in proportion to the concentration |  |
| hexapeptide: polypeptide cargo, SEQ ID NO: 5 EEMQRR (also: FITC label, place not given here) |  | cell membrane penetration of polypeptide cargo (confocal) (FITC-labelled): did not penetrate the cell membrane |
